B1: anionic FGF: anionic FGF prepared from beef brain according to Lobb and Fett (protein, UniProt P03968 16-155, looked up)
Fibroblast growth factor 1: FNLPLGNYKKPKLLYCSNGGYFLRILPDGTVDGTKDRSDQHIQLQLCAESIGEVYIKSTETGQFLAMDTDGLLYGSQTPNEECLFLERLEENHYNTYISKKHAEKHWFVGLKKNGRSKLGPRTHFGQKAILFLPLPVSSD

Key:
[1] = system: human endothelial cells of the umbilical vein; experiment: Proliferation of human umbilical vein endothelial cells, with or without FGFa; assay type: cell-based
Method: At confluence (5-7 days), the cells are detached by an EDTA-trypsin mixture.
48 hours latter, growth factor is added again. After 4 days of culture, the cells are detached by the EDTA-trypsin mixture and the cells are counted by means of a cell counter (Coulter Counter ® Coultronics). Each experimental curve (FIG. 14A-D) represents a typical experiment conducted in triplicate. Each experiment is repeated 2 to 3 times.

[2] = system: LE II cells (endothelial cells of mouse lung); experiment: Tritiated thymidine incorporation in quiescent LE II cells, with or without anionic FGF; assay type: cell-based
Method: LE II cells (endothelial cells of mouse lung) are cultivated on plates containing 24 wells in the presence of 10% foetal calf serum until 3/4 of confluence is attained.
The cells are then maintained for 48 hours in only 0.2% serum and rendered quiescent.
The growth medium is then supplemented with either fibroblast growth factor (FGF) or the oligosaccharide fragments to be tested or both products simultaneously (FGF+product to be tested).
The culture is maintained for a further 24 hours and tritiated thymidine is added 4 hours before the end of the experiment.
The radioactivity incorporated is then counted; each measurement is made in triplicate.

Molecule | ED 50 of FGFa (50% of maximal proliferation) ([1]; FGFa in the absence of oligosaccharides, 10% FCS) | maximal increase of the number of cells ([1]; FGFa without oligosaccharides, versus 10% FCS alone) [%] | dose giving plateau of stimulation ([2]; anionic FGF alone (FIG. 10)) [ng/mL] | plateau of thymidine incorporation after stimulation ([2]; anionic FGF alone, 5 ng/ml (FIG. 10))
FGFa: acidic FGF (FGFa) | about 7 ng/ml | 230 |  | 
B1 |  |  | 5 | 126,000 cpm
